Data set [1] in a line: Phase solubility of sertraline with cyclodextrins. It is filed as physicochemical. To be noted: about 25° C., pH not adjusted, higher cyclodextrin concentration (above about 0.08 M). As to the method:
At lower molar concentrations of cyclodextrin (less than about 0.08 M), the phase solubility curve for each cyclodextrin is very similar.
The phase solubility curves for sertraline with SAE-CD, HP-β-CD and γ-CD were determined according to procedures well known in the art (Higuchi et al. in Phase Solubility Techniques, in Advances in Analytical Chemistry and Instrumentation (Ed. C. N. Reilly, John Wiley & Sons Inc., Vol. 4 (1965), pg. 117-212) the relevant disclosure of which is hereby incorporated by reference). The results are depicted in FIG. 1.

A short description of data set [2]: Solubility of sertraline HCl versus pH in SBE-β-CD solutions. The data set is classed as physicochemical. Particulars: 0, 10% or 20% sulfobutylether-β-cyclodextrin (DS=6.7), buffers pH 1, 3, 5, 7.
Procedure: Aqueous 0.01M buffers were prepared at pH values of 1 (HCl), 3 and 5 (citric acid/sodium citrate), and 7 (monobasic potassium phosphate) and used to prepare solutions containing 0, 10% or 20% sulfobutylether-β-cyclodextrin (DS=6.7). Excess sertraline HCl was added to each of the solutions and allowed to mix for three days. The solutions were centrifuged and the supernatants analyzed for sertraline content and final pH.

Here are results for three compounds from US20050250738A1, “Taste-masked formulations containing sertraline and sulfoalkyl ether cyclodextrin” (priority 2004, published 2005).

“2-hydroxypropyl-β-cyclodextrin [HP-β-CD]”: in data set [1], the “Phase solubility of sertraline with cyclodextrin” value is “outperform the γ-CD”. Regarding `CN[C@H]1CC[C@@H](c2ccc(Cl)c(Cl)c2)c2ccccc21` [sertraline, (1S-cis)-4-(3,4-dichlorophenyl)-1,2,3,4-tetrahydro-N-methyl-1-naphthalenamine], in data set [2], the “Effect of solution pH upon solubility” value is reported as “independent of the pH over the range evaluated”. In the case of “Sulfobutyl Ether-β-Cyclodextrin [SBE7-β-CD]”, in data set [1], the “Phase solubility of sertraline with cyclodextrin” value was “outperform the γ-CD”.
